From patent US20040116493A1, “Anti-helicobacterial agents” (priority 2000, published 2004)
In brackets after ≈: the same amount, converted by molar mass. Several values for one entry are separate records, joined by “and”; a condition that tells them apart may be missing. Equal values may be shown once.

Tests used:
[1] = tested on: Escherichia coli NIHJ JC-2; experiment: Agar plate dilution method, MIC; format: cell-based; conditions: NIHJJC2; Escherichia coli NIHJ JC-2, MH agar, overnight
Protocol: (§1) Firstly, the thus-synthesized compound of the present invention (2) was studied for its activity in vitro. For antibacterial activity, an agar plate dilution method was employed. The agar plate dilution method is well known in the art.
(§2) Specifically, a test compound containing the compound of the present invention was dissolved into dimethylsulfoxide, and serially diluted by two fold each time with sterile distilled water to prepare an antibacterial activity sample for the test compound containing the compound of the present invention. A BHI (Brain Heart Infusion) agar with 7% horse blood was used as medium for investigation of the antibacterial activity against H. pylori and H. felis. 1 ml of the sample of the compound of the present invention was added to 9 ml of the medium, followed by mixing to prepare an agar plate for measuring the antibacterial activity. MH (Mueller Hinton) agar medium was used to investigate the antibacterial activities against Pseudomonas aeruginosa, Escherichia coli, Klebsiella pneumoniae, and Staphylococcus aureus; and 10% horse serum-added MH agar medium was used to investigate the antibacterial activities against Streptococcus pneumoniae and Enterococcus faecalis. In both cases, agar plates for measuring the antibacterial activities are prepared in a manner similar to that for H. pylori and H. felis. For H. pylori and H. felis out of the bacteria to be subjected to the tests, 1 ml of each frozen bacterium stock solution was inoculated to 9 ml of 7% bovine fetal serum-added BHI liquid medium, and cultured at 37° C. for 48 hours in a 10% CO2 incubator. Each culture bacterium solution was prepared with the same medium to 10^6 CFU/ml (colony formation unit/milliliter). 5 μl of the prepared bacterium solution was inoculated to the antibacterial activity measuring agar medium, and cultured at 37° C. for 4 days in a 10% CO2 incubator. MH liquid medium was used for Pseudomonas aeruginosa, Escherichia coli, Klebsiella pneumoniae, and Staphylococcus aureus; and 10% horse serum-added MH liquid medium was used for Streptococcus pneumoniae and Enterococcus faecalis. In both cases, 1 ml of each frozen bacterium stock solution was inoculated to 9 ml of the medium, and cultured at 37° C. overnight. Each culture bacterium solution was prepared with the same medium as that had been used in the incubation to 10^6 CFU/ml. 5 μl of the prepared bacterium solution was inoculated to the antibacterial activity measuring agar medium, and cultured at 37° C. overnight.
(§3) The antibacterial activity of the compound against a subject bacterium (MIC: Minimum Inhibitory Concentration) was a maximum dilution ratio at which the growth of inoculated bacteria was not observed by the unaided eye.
(§4) The results are represented by MIC (Minimum Inhibitory Concentration).

[2] = tested on: Pseudomonas aeruginosa ATCC 25619; experiment: Agar plate dilution method, MIC; format: cell-based; conditions: ATCC25619; Pseudomonas aeruginosa ATCC 25619, MH agar, overnight
Protocol: as §1, §2, §3, §4

[3] = tested on: Helicobacter pylori ATCC 43504; experiment: Agar plate dilution method, MIC; format: cell-based; conditions: ATCC43504, 96 h; Helicobacter pylori ATCC 43504, BHI agar with 7% horse blood, 4 days
Protocol: as §1, §2, §4

[4] = tested on: Staphylococcus aureus FDA 209P; experiment: Agar plate dilution method, MIC; format: cell-based; conditions: FDA209P, MH agar, overnight
Protocol: as §1, §2, §4

[5] = tested on: Klebsiella pneumoniae ATCC 27736; experiment: Agar plate dilution method, MIC; format: cell-based; conditions: ATCC27736; Klebsiella pneumoniae ATCC 27736, MH agar, overnight
Protocol: as §1, §2, §3, §4

Helicobacter pylori SS1 = experiment: Agar plate dilution method, MIC; format: cell-based; conditions: 96 h; Helicobacter pylori SS1, BHI agar with 7% horse blood, 4 days
Protocol: as §1, §2, §3, §4

[6] = tested on: Helicobacter pylori SR-9043; experiment: Agar plate dilution method, MIC; format: cell-based; conditions: SR9043, 96 h; Helicobacter pylori SR-9043, BHI agar with 7% horse blood, 4 days
Protocol: as §1, §2, §4

[7] = tested on: Helicobacter pylori ATCC 43629; experiment: Agar plate dilution method, MIC; format: cell-based; conditions: ATCC43629, 96 h; Helicobacter pylori ATCC 43629, BHI agar with 7% horse blood, 4 days
Protocol: as §1, §2, §4

[8] = tested on: Helicobacter felis ATCC 49179; experiment: Agar plate dilution method, MIC; format: cell-based; conditions: ATCC49179, 96 h; Helicobacter felis ATCC 49179, BHI agar with 7% horse blood, 4 days
Protocol: as §1, §2, §4

[9] = tested on: Streptococcus pneumoniae SR-1003; experiment: Agar plate dilution method, MIC; format: cell-based; conditions: SR1003; Streptococcus pneumoniae SR-1003, 10% horse serum-added MH agar, overnight
Protocol: as §1, §2, §4

[10] = tested on: Enterococcus faecalis ATCC 19433; experiment: Agar plate dilution method, MIC; format: cell-based; conditions: ATCC19433; Enterococcus faecalis ATCC 19433, 10% horse serum-added MH agar, overnight
Protocol: as §1, §2, §4

H. pylori ATCC 43504 = experiment: In vivo bacterial eradication test in infected mice; set-up: species or system mice of the ICR strain; conditions: for Bacterial eradication number / bacterial eradication % / Number of each bacterium in stomach: oral, three days; for Bacterial eradication number / bacterial eradication %: 3 samples; for Number of each bacterium in stomach: individual mice, limit of detection log 1.3; for bacterial eradication effect: 40 mg/kg
Protocol: Next, the compound of the present invention was studied as to whether or not it had bacterial eradication activity in vivo. 5-week old mice of the ICR strain from CLEA Japan, Inc. were used. These mice were infected with H. pylori ATCC 43504 (day 0). After the mice had been confirmed to be infected with H. pylori, the dose indicated in Table 3 was administered into the mice twice a day (AM 9 and PM 5) from day 20 to day 22. At day 23 which was the day after the last day of the administration, the mice were dissected and the number of bacteria within their stomachs were counted. The bacteria count measurement was conducted in the following manner. Phosphate buffer was added to the collected stomachs to prepare homogenates. These homogenates were inoculated to 7% horse blood-added agar medium to which various drugs were added in order to suppress the growth of bacteria other than the genus Helicobacter, and cultured at 37° C. for 7 days in a 10% CO2 incubator. The bacterial eradication activity was judged by detecting the presence or absence of the growth of the bacteria.

| MIC [1] [µg/mL] | MIC [2] [µg/mL] | MIC [3] [µg/mL] | MIC [4] [µg/mL] | MIC [5] [µg/mL] | MIC (Helicobacter pylori SS1) [µg/mL] | MIC [6] [µg/mL] | MIC [7] [µg/mL] | MIC [8] [µg/mL] | MIC [9] [µg/mL] | MIC [10] [µg/mL] | Structure (SMILES) | bacterial eradication effect (samples) (H. pylori ATCC 43504; 20 mg/kg) | Bacterial eradication number (H. pylori ATCC 43504; 20 mg/kg twice a day) | bacterial eradication % (H. pylori ATCC 43504; 20 mg/kg twice a day) | Number of each bacterium in stomach (H. pylori ATCC 43504; 20 mg/kg twice a day) | bacterial eradication effect (H. pylori ATCC 43504) | Bacterial eradication number (H. pylori ATCC 43504; 40 mg/kg twice a day) | bacterial eradication % (H. pylori ATCC 43504; 40 mg/kg twice a day) | Number of each bacterium in stomach (H. pylori ATCC 43504; 40 mg/kg twice a day) |
| --- | --- | --- | --- | --- | --- | --- | --- | --- | --- | --- | --- | --- | --- | --- | --- | --- | --- | --- | --- |
| > 25 | > 25 | 2.5 (≈ 5.78 µM) | > 25 |  |  |  |  |  |  |  | O=C1c2ccc3c4c(ccc(c24)C(=O)N1c1nccs1)C(=O)N(c1nccs1)C3=O [Compound 4] |  |  |  |  |  |  |  |  |
| > 25 | > 25 | > 25 | > 25 | > 25 | 0.78 (≈ 4.56 µM) | > 25 | 3.13 (≈ 18.3 µM) | 0.78 (≈ 4.56 µM) | > 25 | > 25 | Cc1ncc([N+](=O)[O-])n1CCO [Metronidazole, metronidazole] |  |  |  |  |  |  |  |  |
| > 25 | > 25 | 6.25 (≈ 21.2 µM) | > 25 |  |  |  |  |  |  |  | CN1C(=O)c2ccc3c4c(ccc(c24)C1=O)C(=O)N(C)C3=O [Compound 3] |  |  |  |  |  |  |  |  |
| > 25 | > 25 | 0.2 (≈ 0.476 µM) | > 25 | > 25 | 0.1 (≈ 0.238 µM) | 0.39 (≈ 0.928 µM) | 0.2 (≈ 0.476 µM) | 0.1 (≈ 0.238 µM) | > 25 | > 25 | O=C1c2ccc3c4c(ccc(c24)C(=O)N1c1ccccn1)C(=O)N(c1ccccn1)C3=O [Compound 2, N,N′-bis-(2-pyridyl)naphthalene-1,4,5,8-tetracarboxylate diimide] | 3/3 | 3 | 100% | <1.3, <1.3, log CFU/stomach (2×) and <1.3 log CFU/stomach |  |  |  |  |
| > 25 | > 25 | 0.39 (≈ 0.955 µM) | > 25 |  |  |  |  |  |  |  | CN(C)CCN1C(=O)c2ccc3c4c(ccc(c24)C1=O)C(=O)N(CCN(C)C)C3=O [Compound 7] |  |  |  |  |  |  |  |  |
| > 25 | > 25 | 12.5 (≈ 22.5 µM) | > 25 |  |  |  |  |  |  |  | O=C1c2ccccc2C(=O)N1N1C(=O)c2ccc3c4c(ccc(c24)C1=O)C(=O)N(N1C(=O)c2ccccc2C1=O)C3=O [Compound 5] |  |  |  |  |  |  |  |  |
| > 25 | > 25 | 0.31 (≈ 0.707 µM) | > 25 |  |  |  |  |  |  |  | CC(=O)OCCN1C(=O)c2ccc3c4c(ccc(c24)C1=O)C(=O)N(CCOC(C)=O)C3=O [Compound 6] |  |  |  |  |  |  |  |  |
| 12.5 (≈ 16.7 µM) | > 25 | 0.025 (≈ 0.0334 µM) | 0.05 (≈ 0.0668 µM) | > 25 | 0.025 (≈ 0.0334 µM) | > 25 | 0.1 (≈ 0.134 µM) | < 0.025 | 0.0125 (≈ 0.0167 µM) | > 25 | CC[C@H]1OC(=O)[C@H](C)[C@@H](O[C@H]2C[C@@](C)(OC)[C@@H](O)[C@H](C)O2)[C@H](C)[C@@H](O[C@@H]2O[C@H](C)C[C@H](N(C)C)[C@H]2O)[C@](C)(OC)C[C@@H](C)C(=O)[C@H](C)[C@@H](O)[C@]1(C)O [Clarithromycin, clarithromycin] |  | 0 (0) | 0 (0) % | 2.79 log CFU/stomach and 2.89 log CFU/stomach and 3.37 log CFU/stomach | not observed | 0 (0) | 0 (0) % | 1.6, 1.6, log CFU/stomach (2×) and 2.38 log CFU/stomach |
| 6.25 (≈ 17.1 µM) | > 25 | 0.025 (≈ 0.0684 µM) | 0.05 (≈ 0.137 µM) | 0.2 (≈ 0.547 µM) | 0.39 (≈ 1.07 µM) | 0.39 (≈ 1.07 µM) | 0.1 (≈ 0.274 µM) | 0.1 (≈ 0.274 µM) | 0.05 (≈ 0.137 µM) | 0.39 (≈ 1.07 µM) | CC1(C)S[C@@H]2[C@H](NC(=O)[C@H](N)c3ccc(O)cc3)C(=O)N2[C@H]1C(=O)O [Amoxicillin, amoxicillin] |  | 1 | 33% | 1.60 log CFU/stomach and < 1.3 log CFU/stomach | not observed | 2 | 67% | <1.3, <1.3, log CFU/stomach (2×) and 1.78 log CFU/stomach |

| Structure (SMILES) | MIC [1] [µg/mL] | MIC [2] [µg/mL] | MIC [3] [µg/mL] | MIC [4] [µg/mL] | MIC [5] [µg/mL] | MIC (Helicobacter pylori SS1) [µg/mL] | MIC [6] [µg/mL] | MIC [7] [µg/mL] | MIC [8] [µg/mL] | MIC [9] [µg/mL] | MIC [10] [µg/mL] | bacterial eradication effect (samples) (H. pylori ATCC 43504; 20 mg/kg) | Bacterial eradication number (H. pylori ATCC 43504; 20 mg/kg twice a day) | bacterial eradication % (H. pylori ATCC 43504; 20 mg/kg twice a day) | Number of each bacterium in stomach (H. pylori ATCC 43504; 20 mg/kg twice a day) | bacterial eradication effect (H. pylori ATCC 43504) | Bacterial eradication number (H. pylori ATCC 43504; 40 mg/kg twice a day) | bacterial eradication % (H. pylori ATCC 43504; 40 mg/kg twice a day) | Number of each bacterium in stomach (H. pylori ATCC 43504; 40 mg/kg twice a day) |
| --- | --- | --- | --- | --- | --- | --- | --- | --- | --- | --- | --- | --- | --- | --- | --- | --- | --- | --- | --- |
| CN(C)[C@@H]1C(O)=C(C(N)=O)C(=O)[C@@]2(O)C(O)=C3C(=O)c4c(O)cccc4[C@@](C)(O)[C@H]3C[C@@H]12 [Tetracycline, tetracycline] | 1.56 (≈ 3.51 µM) | > 25 |  |  | 3.13 (≈ 7.04 µM) |  |  |  |  |  |  |  |  |  |  |  |  |  |  |
